Reference: EP4790049A1, “BIPHENYL TETRAHYDROPYRROLE COMPOUND, PREPARATION METHOD THEREFOR AND USE THEREOF” (Hainan Yinrui Bio-Pharm Co., Ltd., priority 2023, dated 2025)
Structures can show the parent of a compound that is named as a salt.

Assays:
Human recombinant MAO-B = target: T1, Human recombinant MAO-B (Homo sapiens, UniProt P27338); test: Human recombinant MAO-B inhibitory activity assay (Promega MAO-Glo); format: biochemical; details: human recombinant enzyme expressed in Sf 9 cells; substrate benzylamine 40 µM; 15 min pre-incubation, 60 min reaction, room temperature; 10 concentrations, duplicate wells
T1 construct: Full-length human recombinant MAO-A and MAO-B proteins were both expressed in Baculovirus infected Sf 9 cells; FLAG (N); host or cells: Baculovirus-infected Sf9 insect cells
T1 sequence (P27338 1-520): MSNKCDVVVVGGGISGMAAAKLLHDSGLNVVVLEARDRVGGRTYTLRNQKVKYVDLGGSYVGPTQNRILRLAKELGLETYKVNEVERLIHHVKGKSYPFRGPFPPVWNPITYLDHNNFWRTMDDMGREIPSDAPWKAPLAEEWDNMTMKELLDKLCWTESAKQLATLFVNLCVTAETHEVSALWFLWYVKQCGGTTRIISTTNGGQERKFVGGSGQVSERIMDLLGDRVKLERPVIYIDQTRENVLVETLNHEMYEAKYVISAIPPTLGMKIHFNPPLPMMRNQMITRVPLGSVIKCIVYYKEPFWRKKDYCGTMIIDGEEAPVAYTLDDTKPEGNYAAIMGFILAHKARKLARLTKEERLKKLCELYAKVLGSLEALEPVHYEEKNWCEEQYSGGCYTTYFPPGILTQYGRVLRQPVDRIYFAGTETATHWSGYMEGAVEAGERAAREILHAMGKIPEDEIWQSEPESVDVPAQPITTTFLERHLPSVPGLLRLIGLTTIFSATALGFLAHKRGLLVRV
Protocol: (§1) Full-length human recombinant MAO-A and MAO-B proteins were both expressed in Baculovirus infected Sf 9 cells, containing an N-terminal FLAG tag, with a molecular weight of 59.8 kDa. […] A 40 µM substrate was incubated with the MAO protein at room temperature for 1 hour. The product generated by the oxidative deamination reaction between the MAO and the substrate was incubated with a fluorescent luminescent agent for 0.5 hours, and then the activity of the MAO was detected using the Promega MAO-Glo TM detection method.
(§2) Human recombinant monoamine oxidase A/B expressed in Sf 9 cells was used. During the experiment, the recombinant monoamine oxidase A/B was first dissolved in a HEPES buffer (0.8% NaCl, 0.037% KCl, 0.0135% Na2HPO4·2H2O, 0.1% Glucan, 0.5% HEPES, pH 7.0). 10 µL of the monoamine oxidase A/B solution was added to a 384-well plate, followed by the addition of the test compound (final DMSO concentration of 1%) in each well for 10 concentration gradients. […] The plate was incubated at room temperature for 15 minutes. 10 µL of a substrate solution (40 µM, with tyramine and benzylamine as substrates for MAO-A and MAO-B, respectively) was added to each well, followed by incubation at room temperature for 60 minutes. Subsequently, 20 µL of luciferin detection reagent was added to each well, mixed thoroughly, and incubated at room temperature for 20 minutes to generate a stable fluorescent signal. The fluorescent signal was read using a fluorescence microplate reader, and the values were expressed as relative light units (RLU). The experiment was designed with duplicate wells, and the average value was used to calculate the enzyme activity inhibition rate using the following formula: Inh% = (Max-Signal) / (Max-Min)∗100 [formula] • where Max is the value detected at the maximum concentration of the sample, Min is the value detected at the minimum concentration of the sample, and Signal is the value detected at the current concentration of the sample. […] Table 1. Activity Data IC50 (nM)

Human recombinant MAO-A = target: T2, Human recombinant MAO-A (Homo sapiens, UniProt P21397); test: Human recombinant MAO-A inhibitory activity assay (Promega MAO-Glo); format: biochemical; details: human recombinant enzyme expressed in Sf 9 cells; substrate tyramine 40 µM; 15 min pre-incubation, 60 min reaction, room temperature; 10 concentrations, duplicate wells
T2 construct: Full-length human recombinant MAO-A and MAO-B proteins were both expressed in Baculovirus infected Sf 9 cells; FLAG (N); host or cells: Baculovirus-infected Sf9 insect cells
T2 sequence (P21397 1-527): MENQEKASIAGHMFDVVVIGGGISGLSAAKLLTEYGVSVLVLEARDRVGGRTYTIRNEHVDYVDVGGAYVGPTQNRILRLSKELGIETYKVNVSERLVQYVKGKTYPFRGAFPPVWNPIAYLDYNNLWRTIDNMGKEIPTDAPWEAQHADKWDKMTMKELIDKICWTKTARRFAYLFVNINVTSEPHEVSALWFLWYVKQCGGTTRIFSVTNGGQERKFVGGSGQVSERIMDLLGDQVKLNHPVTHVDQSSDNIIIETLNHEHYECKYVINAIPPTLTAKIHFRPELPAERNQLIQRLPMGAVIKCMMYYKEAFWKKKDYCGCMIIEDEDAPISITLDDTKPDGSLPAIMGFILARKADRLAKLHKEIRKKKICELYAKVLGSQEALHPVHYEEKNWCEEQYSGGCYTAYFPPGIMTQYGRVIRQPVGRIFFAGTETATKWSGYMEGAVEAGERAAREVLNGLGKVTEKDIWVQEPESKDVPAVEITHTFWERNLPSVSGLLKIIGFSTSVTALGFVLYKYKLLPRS
Protocol: as §1, §2

Row | IC50 (Human recombinant MAO-B) [µM] | IC50 (Human recombinant MAO-A) [µM] | SMILES
1 | 7.53 | > 10 | NC(=O)[C@@H]1CC[C@H](c2ccc(-c3ccccc3)cc2)N1 [Compound 16, hydrochloride]
2 | 0.71 | 6.33 | Cc1ccc(-c2ccc([C@H]3CC[C@@H](C(N)=O)N3)cc2)cc1 [Compound 17, (2S,5R)-5-[4-(4-methylphenyl)phenyl]-1H-pyrrole-2-carboxamide hydrochloride]
3 | 3.57 | 9.11 | COc1ccc(-c2ccc([C@H]3CC[C@@H](C(N)=O)N3)cc2)cc1 [Compound 18, hydrochloride]
4 | 0.891 | > 10 | Cc1cc(-c2ccc(C(F)(F)F)cc2)ccc1[C@H]1CC[C@@H](C(N)=O)N1 [Compound 19, hydrochloride]
5 | 0.998 | > 10 | COc1cc(-c2ccc(C(F)(F)F)cc2)ccc1[C@H]1CC[C@@H](C(N)=O)N1 [Compound 20, hydrochloride]
6 | 1.36 | > 10 | N#Cc1cc(-c2ccc(C(F)(F)F)cc2)ccc1[C@H]1CC[C@@H](C(N)=O)N1 [Compound 21, hydrochloride]
7 | 0.433 | > 10 | NC(=O)[C@@H]1CC[C@H](c2cc(F)c(-c3ccc(C(F)(F)F)cc3)c(F)c2)N1 [Compound 22, hydrochloride]
8 | 2.53 | 9.83 | N#Cc1cc([C@H]2CC[C@@H](C(N)=O)N2)ccc1-c1ccc(C(F)(F)F)cc1 [Compound 23, hydrochloride]
9 | 0.773 | > 10 | NC(=O)[C@@H]1CC[C@H](c2c(F)cc(-c3ccc(C(F)(F)F)cc3)cc2F)N1 [Compound 24, hydrochloride]
10 | 1.51 | > 10 | CC1C[C@H](c2ccc(-c3ccc(C(F)(F)F)cc3)cc2)N[C@@H]1C(N)=O (some centres unmarked) [Compound 25, hydrochloride]
11 | 3.67 | > 10 | CN1[C@@H](c2ccc(-c3ccc(C(F)(F)F)cc3)cc2)CC[C@H]1C(N)=O [Compound 26]
12 | 7.53 | > 10 | CNC(=O)[C@@H]1CC[C@H](c2ccc(-c3ccc(C(F)(F)F)cc3)cc2)N1 [Compound 27, hydrochloride]
13 | 1 | > 10 | CN(C)C(=O)[C@@H]1CC[C@H](c2ccc(-c3ccc(C(F)(F)F)cc3)cc2)N1 [Compound 28, hydrochloride]
14 | 0.562 | > 10 | CCN1[C@@H](c2ccc(-c3ccc(C(F)(F)F)cc3)cc2)CC[C@H]1C(N)=O [Compound 30]
15 | 0.533 | > 10 | O=C(O)[C@@H]1CC[C@H](c2ccc(-c3ccc(F)cc3)cc2)N1 [Compound 31, hydrochloride]
16 | 1.99 | > 10 | COC(=O)[C@@H]1CC[C@H](c2ccc(-c3ccc(F)cc3)cc2)N1 [Compound 32, hydrochloride]

Further lines, the molecule ahead of its results:

Row | SMILES | IC50 (Human recombinant MAO-B) [µM] | IC50 (Human recombinant MAO-A) [µM]
17 | NC(=O)[C@@H]1CC[C@H](c2ccc(-c3ccc(C(F)(F)F)cc3)cc2)N1 [Compound 1, hydrochloride] | 0.083 | > 10
18 | NC(=O)[C@@H]1CC[C@H](c2ccc(-c3ccc(F)cc3)cc2)N1 [Compound 2, hydrochloride] | 1.51 | > 10
19 | NC(=O)[C@@H]1CC[C@H](c2ccc(-c3ccc(OC(F)(F)F)cc3)cc2)N1 [Compound 3, hydrochloride] | 0.199 | > 10
20 | NC(=O)[C@@H]1CC[C@H](c2ccc(-c3cccc(C(F)(F)F)c3)cc2)N1 [Compound 4, hydrochloride] | 0.477 | > 10
21 | NC(=O)[C@@H]1CC[C@H](c2ccc(-c3cccc(F)c3)cc2)N1 [Compound 5, hydrochloride] | 3.05 | > 10
22 | NC(=O)[C@@H]1CC[C@@H](c2ccc(-c3ccc(C(F)(F)F)cc3)cc2)N1 [Compound 6, hydrochloride] | 0.104 | > 10
23 | NC(=O)[C@H]1CC[C@H](c2ccc(-c3ccc(C(F)(F)F)cc3)cc2)N1 [Compound 7, hydrochloride] | 0.147 | > 10
24 | NC(=O)[C@H]1CC[C@@H](c2ccc(-c3ccc(C(F)(F)F)cc3)cc2)N1 [Compound 8, hydrochloride] | 0.562 | 9.97
25 | NC(=O)[C@@H]1CC[C@H](c2ccc(-c3ccccc3C(F)(F)F)cc2)N1 [Compound 9, hydrochloride] | 0.891 | > 10
26 | NC(=O)[C@@H]1CC[C@H](c2ccc(-c3ccc(Cl)cc3)cc2)N1 [Compound 10, hydrochloride] | 0.564 | 83.3
27 | N#Cc1ccc(-c2ccc([C@H]3CC[C@@H](C(N)=O)N3)cc2)cc1 [Compound 11, hydrochloride] | 1.34 | 9.36
28 | NC(=O)[C@@H]1CC[C@H](c2ccc(-c3ccc([N+](=O)[O-])cc3)cc2)N1 [Compound 12, hydrochloride] | 0.796 | 6.32
29 | NC(=O)[C@@H]1CC[C@H](c2ccc(-c3ccc(C(=O)O)cc3)cc2)N1 [Compound 13, hydrochloride] | 1.54 | > 10
30 | NC(=O)c1ccc(-c2ccc([C@H]3CC[C@@H](C(N)=O)N3)cc2)cc1 [Compound 14, hydrochloride] | 0.991 | > 10
31 | COC(=O)c1ccc(-c2ccc([C@H]3CC[C@@H](C(N)=O)N3)cc2)cc1 [Compound 15, hydrochloride] | 0.784 | > 10
